Measurements as given in the NIST ThermoML archive (doi:10.1016/j.tca.2011.11.036).
Numbers after ± are expanded uncertainties.

Test: molar heat capacity at constant pressure; xn = mol fraction of the nth substance listed
Settings: 101 kPa, Liquid, Small sample (50 mg) DSC

NC(N)=O [urea] + C[N+](C)(C)CCO.[Cl-]
x2 = 0.3333
Settings	molar heat capacity at constant pressure [J/K/mol]
303.15 K	181.4 ± 2.8
308.15 K	182.2 ± 2.8
313.15 K	183.2 ± 2.8
318.15 K	183.5 ± 2.8
323.15 K	184.5 ± 2.9
328.15 K	185.3 ± 2.9
333.15 K	186.4 ± 2.9
338.15 K	187.4 ± 2.9
343.15 K	188.5 ± 3
348.15 K	189.5 ± 2.9
353.15 K	190.8 ± 3.1

C[N+](C)(C)CCO.[Cl-] [choline chloride] + OCCO
x1 = 0.3333
Settings	molar heat capacity at constant pressure [J/K/mol]
303.15 K	190.8 ± 3
308.15 K	192.2 ± 3
313.15 K	194 ± 3
318.15 K	194.9 ± 3
323.15 K	196.4 ± 3
328.15 K	197.6 ± 3.1
333.15 K	199.2 ± 3.1
338.15 K	200.6 ± 3.1
343.15 K	202.1 ± 3.1
348.15 K	203.9 ± 3.2
353.15 K	205.6 ± 3.2

C[N+](C)(C)CCO.[Cl-] [choline chloride] + OCC(O)CO
x1 = 0.3333
Settings	molar heat capacity at constant pressure [J/K/mol]
303.15 K	237.7 ± 3.7
308.15 K	239.1 ± 3.7
313.15 K	240.8 ± 3.7
318.15 K	241.9 ± 3.7
323.15 K	243.5 ± 3.8
328.15 K	244.9 ± 3.8
333.15 K	246.9 ± 3.8
338.15 K	248.4 ± 3.8
343.15 K	250.3 ± 3.9
348.15 K	252.1 ± 3.9
353.15 K	254.3 ± 3.9
